According to patent US20070280944A1, “Use of 5,10-Methylene Tetrahydrofolate for the Treatment of Cancer” (priority 2004, published 2007):

What was measured:
[1] = system: human colon carcinoma HT-29; assay: HT-29 Colorectal Carcinoma Nude Mouse Study #1 (tumor volume, survival); type: in vivo, Nude (nu/nu) mice; settings: for mean tumor volume: 22 days following treatment initiation, mean±SEM, i.p. dosing, in mm³ (unit assumed)
Description: (§1) Nude (nu/nu) mice were obtained from Charles River Laboratories.
5-Fluorouracil (5-FU) was obtained from Calbiochem. Leucovorin (leucovorin) and oxaliplatin were obtained from Sigma-Aldrich.
Finally, cells were resuspended at 2×10^7 cells/ml in PBS. […] All drugs were dosed daily (0.6 mg/mouse/drug) for five consecutive days with the exception of anti-VEGF and oxaliplatin. Anti-VEGF was dosed once (100 microgram/mouse) on day 5. Oxaliplatin was dosed once on day 1 (0.3mg/mouse). In addition, 5,10-CH2-THFA or leucovorin were injected 20 minutes prior to 5-FU injection. Tumor sizes were measured every 2 to 3 days using calipers.
(§2) Statistical analysis of tumor and blood data was performed using GraphPad Prism scientific software. Bonferonni's T test was used to compare tumor sizes between multiple groups. The Logrank test was used to determine statistical differences between group survival curves. In some cases, in which only two groups were compared, Student's T test was used to determine the significance between group measurements.

Balb/c mice [2] = system: Balb/c mice
Description: (§3) Balb/c mice were obtained from Charles River Laboratories.
5-Fluorouracil (5-FU) was obtained from Calbiochem. Leucovorin (folinic acid) was obtained from Sigma-Aldrich.
All drugs were intraperitoneally injected (100 microliters/mouse, 0.6mg/mouse/drug) using a 28 gauge insulin needle/syringe. 200-250 microliters blood/mouse was collected by retro-orbital puncture into EDTA-coated microtainer tubes (VWR International) on days 0 (prior to drug injection), 8, and 13. Complete blood counts plus blood differentials were determined by Labcorp Corporation of America using a Bayer Advia 120 Hematology analyzer.

[3] = system: human colon carcinoma HT-29; assay: HT-29 Colorectal Carcinoma Nude Mouse Study #2 (doubling time, tumor volume, survival); type: in vivo, Nude (nu/nu) mice
Source text: as §1
5-Fluorouracil (5-FU) was obtained from Calbiochem. Leucovorin (leucovorin) and oxaliplatin were obtained from Sigma-Aldrich. 5,10 methylenetetrahydofolate was manufactured by Eprova AG. A monoclonal antibody to vascular endothelial growth factor (anti-VEGF) was either obtained from R&D Systems (clone 26503 recognizing the human VEGF isoform 165) or Genentech (Avastin).
Finally, cells were resuspended at 1×10^7 cells/ml in PBS. […] All drugs were dosed daily (0.6 mg/mouse/drug) for seven consecutive days with the exception of anti-VEGF, dosed twice (100 micrograms/mouse) on days 1 and 7. In addition, 5,10-CH2-THFA or leucovorin were injected 20 minutes prior to 5-FU injection. Tumor sizes were measured every 2 to 3 days using calipers.
as §2

Balb/c mice [4] = type: in vivo
Description: as §3
5-Fluorouracil (5-FU) and leucovorin (leucovorin) were obtained from Sigma-Aldrich. […] Gemcitabine was manufactured by Eli Lilly and purchased from Myoderm Inc.
Balb/c female mice were injected with combinations of 5-FU, leucovorin, 5,10-CH2-THFA, and gemcitabine. 5-FU, leucovorin, and 5,10-CH2-THFA were intraperitoneally injected (100 microliters/mouse, 0.6 mg/mouse/drug) for five consecutive days (days 1-5). Gemcitabine was intraperitoneally injected (100 microliters/mouse, 100 micrograms/mouse) every three days (days 1, 4, and 7). All drugs were injected using a 27 gauge insulin needle/syringe. Mouse weights were measured using an analytical balance prior to initiation of drug dosing (pretreatment) and on day 8.

[5] = system: human colon carcinoma HT-29; assay: Nude mouse study on HT-29 colorectal tumor treatment with capecitabine (Xeloda) (doubling time, survival)
Description: Nude (nu/nu) mice were obtained from Simonsen Laboratories. Mice were 6-8 weeks old at the start of all studies. Mice were maintained in isolated, hepa-filter ventilated cages with 4 mice per cage at Perry Scientific's vivarium (San Diego, Calif.).
The human colon carcinoma HT-29 was obtained from American Tissue Culture Collection (ATCC). Cells were maintained in DMEM containing 10% fetal bovine serum (FBS), 2 mM 1-glutamine, 100 units/ml penicillin, and 100 micrograms/ml streptomycin (DMEM-10) in a 37° C., 10% CO2 humidified incubator. Cells were passaged every 2-3 days prior to in vivo experiments.
Capecitabine (Xeloda) was manufactured by Roche Laboratories (Nutley, N.J.) Leucovorin (leucovorin) was obtained from Sigma-Aldrich. 5,10 methylenetetrahydofolate (5,10-CH2-THFA) was manufactured by Eprova AG.
HT-29 cells were prepared for injection as follows: Confluent tissue culture flasks of HT-29 cells were washed once with PBS followed by cell detachment with trypsin. Detached cells were then washed once in DMEM-10 followed by one wash with PBS. Finally, cells were resuspended in PBS at 10^7 cells/ml. […] Tumor sizes and mouse body weights were measured every 2-4 days. Tumor volume was calculated using the following formula: tumor volume=(length×width^2)/2. […]

[6] = Weight loss toxicity in the Xeloda HT-29 nude mouse study; type: in vivo, Nude (nu/nu) mice; settings: maximum toxicity grade, NCI CTC v3 (grade 1 5-<10% weight loss)
Source text: As a surrogate marker for drug toxicity, we examined mouse body weights over time. Using the National Cancer Institute's Common Toxicity Criteria version 3 grading system for weight loss (Table 11), the maximum toxicity grade of weight loss was plotted (FIG. 21). While Xeloda by itself was relatively nontoxic, inducing only grade 1 toxicity in 36% of the mice, leucovorin increased the overall grade 1-3 toxicity to 90% of mice. This increased toxicity is consistent with phase II human clinical trial results showing leucovorin increased Xeloda toxicity parameters such as diarrhea, vomiting, and mucosal inflammation (Van Cutsem, E., M. Findlay, B. Osterwalder, W. Kocha, D. Dailey, R. Pazdur, J. Cassidy, L. Dirix, C. Twelves, D. Allman, J. F. Seitz, J. Scholmerich, H. U. Burger, and J. Verweij. 2000. Capecitabine, an oral fluoropyrimidine carbamate with substantial activity in advanced colorectal cancer: results of a randomized phase II study. J Clin Oncol 18:1337).

[7] = female, Balb/c, mouse, in vivo, 1 week following drug treatment
[8] = female, Balb/c, mouse, in vivo, 8 day

O=c1[nH]cc(F)c(=O)[nH]1 [5-FU, 5-fluorouracil]
mean tumor volume ([1]; Nude mice bearing HT-29 tumor): 752.5±104.2 | mice still alive (survival) ([1]; at completion of the study period (42 days), Nude mice bearing HT-29 tumor): 25% | mice with Grade 3-4 lymphopenia (Balb/c mice [2]; NCI grading on % of baseline lymphocyte levels (Grade 3 25-<50% LLN, Grade 4 <25% LLN), one week following drug treatment): 100% | grade 4 neutrophil toxicity mice with neutrophil cell counts between 0 and 99 (Balb/c mice [2]; female, Balb/c, mouse, in vivo): 100% | mice with grade 4 neutrophil toxicity (Balb/c mice [2]; [7]): 100% | mice with grade 4 platelet toxicity (Balb/c mice [2]; [7]): 25% | mean tumor volume ([3]; 19 days following treatment initiation, mean±SEM, in mm³ (unit assumed)): 368.5±63.7 | Tumor Doubling Time ([3]; from best-fit curve analysis, Nude mice bearing HT-29 tumor): 7.4 days | mice with grade 2-3 weight loss toxicity (Balb/c mice [4]; [8]): 100% | mice surviving for up to 14 days (Balb/c mice [4]; normal Balb/c mice): 36%

O=C1[O][Pt]2([NH][C@@H]3CCCC[C@H]3[NH]2)[O]C1=O [Oxaliplatin, oxaliplatin]
mean tumor volume ([1]; Nude mice bearing HT-29 tumor): 875.0±90.6 | response of HT-29 tumor to drug ([1]; largest tumors of all groups, FIG. 4): not responsive

CCCCCOC(=O)Nc1nc(=O)n([C@@H]2O[C@H](C)[C@@H](O)[C@H]2O)cc1F [Xeloda, N4-pentoxylcarbonyl-5′-deoxy-5-fluorocytidine]
Tumor Doubling Time ([5]; from best-fit linear regression of exponential tumor growth, 14 consecutive days dosing): 10.1 days | survival ([5]; on day 33 of the experiment (day 1 = first day of drug dosing)): 38% | mice with grade 1 weight loss toxicity (only grade seen) [6]: 36%

Nc1ccn([C@@H]2O[C@H](CO)[C@@H](O)C2(F)F)c(=O)n1 [gemcitabine]
weight loss toxicity grade (Balb/c mice [4]; [8]): grade 1
